# Source: BindingDB's records for doi:10.1021/acsmedchemlett.9b00552 (Bristol-Myers Squibb Research & Development, 2020)
# Target: T1, TGF-beta receptor type-1 (Homo sapiens, UniProt P36897)
# T1 sequence (P36897 whole entry): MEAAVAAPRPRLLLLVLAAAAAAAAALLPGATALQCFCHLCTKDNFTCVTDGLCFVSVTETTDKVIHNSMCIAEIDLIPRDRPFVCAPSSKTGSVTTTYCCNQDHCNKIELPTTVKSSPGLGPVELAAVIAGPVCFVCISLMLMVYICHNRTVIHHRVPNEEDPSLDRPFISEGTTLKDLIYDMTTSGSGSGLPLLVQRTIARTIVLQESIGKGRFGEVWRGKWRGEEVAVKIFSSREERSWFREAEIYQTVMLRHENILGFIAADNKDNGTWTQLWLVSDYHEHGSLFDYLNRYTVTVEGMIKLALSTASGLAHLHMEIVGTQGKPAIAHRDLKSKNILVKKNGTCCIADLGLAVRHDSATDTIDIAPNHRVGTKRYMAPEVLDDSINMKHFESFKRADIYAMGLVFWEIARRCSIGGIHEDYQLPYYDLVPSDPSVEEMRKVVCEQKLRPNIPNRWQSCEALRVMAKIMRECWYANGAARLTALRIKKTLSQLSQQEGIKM
# Experiment: Inhibition of TGFbetaR1 in TGFbeta-stimulated mink Mv1Lu cells assessed as reduction in SMAD nuclear translocation preincubated for 1 hr followed by TGFbeta-stimulation for 15 mins by array scan based method
row,IC50 [nM],SMILES
1,420,Cc1cccc(-c2ncn(CC(F)F)c2-c2ccc3nccn3c2)n1
2,350,"N#Cc1cnc2ccc(-c3c(-c4ccc(F)c(Cl)c4)ncn3CCO)nn12 [6-(4-(3-chloro-4-fluorophenyl)-1-(2-hydroxyethyl)-1H-imidazol-5-yl)imidazo[1,2-b]pyridazine-3-carbonitrile]"
